From ChEMBL document CHEMBL1201862, “PubChem BioAssay data set” (2004)
The source made the active and inactive calls.

What was measured:
[1] = target: Voltage-gated inwardly rectifying potassium channel KCNH2 (Homo sapiens, UniProt Q12809); details: Potency;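 further: confirmatory quantitative high-throughput screen measuring inhibition of hERG channel activity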
Prothrombin = Prothrombin (Homo sapiens, UniProt P00734); assay: Thrombin 1536 HTS Dose Response Confirmation. [Related pubchem assays: 1046 (Thrombin 1536 HTS; hits were confirmed in this assay)]; type: functional
Estrogen receptor = target: T1, Estrogen receptor (Homo sapiens, UniProt P03372);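 further: potency for inhibiting coactivator peptide recruitment to the receptor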
T1 sequence (P03372 whole entry): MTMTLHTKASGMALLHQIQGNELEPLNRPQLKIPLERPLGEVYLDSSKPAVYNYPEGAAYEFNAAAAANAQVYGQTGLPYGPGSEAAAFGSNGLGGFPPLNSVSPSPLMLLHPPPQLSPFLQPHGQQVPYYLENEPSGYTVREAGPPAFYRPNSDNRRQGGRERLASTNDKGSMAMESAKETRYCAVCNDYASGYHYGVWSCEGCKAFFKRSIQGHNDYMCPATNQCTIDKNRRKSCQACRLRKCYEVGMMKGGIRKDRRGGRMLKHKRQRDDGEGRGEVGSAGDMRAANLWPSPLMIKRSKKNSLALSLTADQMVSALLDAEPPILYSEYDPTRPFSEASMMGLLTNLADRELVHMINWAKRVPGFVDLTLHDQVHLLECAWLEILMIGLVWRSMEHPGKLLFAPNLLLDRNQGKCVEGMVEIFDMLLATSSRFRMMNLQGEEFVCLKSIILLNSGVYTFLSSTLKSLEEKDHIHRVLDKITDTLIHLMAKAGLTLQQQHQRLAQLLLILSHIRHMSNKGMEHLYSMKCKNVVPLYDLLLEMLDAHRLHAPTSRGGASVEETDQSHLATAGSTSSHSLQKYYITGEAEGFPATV

[2] = viability of HCT116 lacking mutant beta-catenin – cell-based, human colon tumor, dose response (AID 1045); type: functional;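 further: HCT116 colon tumor cells with beta catenin knocked out; cells exposed to compound for 60 hours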
[3] = viability of PTEN-deleted HCT116 cells – cell-based, HCT116 PTEN knockout, dose response (AID 1047); type: functional;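 further: HCT116 colon tumor cells with PTEN knocked out; cells exposed to compound for 60 hours before readout; potency for loss of cell viability measured by luminescence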
Fatty acid synthase [4] = target: T2, Fatty acid synthase (Homo sapiens, UniProt P49327); assay: inhibition of human FAS-TE enzyme activity – biochemical, kinetic fluorescence intensity, dose response (AID 624326); type: functional;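 further: rate of fluorescence rise from hydrolysis of a fluorogenic O-methyl fluorescein ester substrate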
Fatty acid synthase [5] = target: T2, Fatty acid synthase; assay: inhibition of human FAS-TE enzyme activity – biochemical, endpoint fluorescence intensity, uHTS hits, dose response (AID 624327); type: functional;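 further: fluorescence from hydrolysis of an O-methyl fluorescein acyl ester substrate by the enzyme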
[6] = NIH3T3 cell viability loss – ATP luminescence, mouse fibroblasts, counter-screen, dose response (AID 2010); type: functional, cell-based;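 further: cells exposed to compound for about 90 hours before reading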
HeLa = assay: ATP-based viability loss in HeLa cells – cell-based, CellTiter-Glo luminescence, cherry-pick samples, cytotoxicity control for MITF activator project, dose response (AID 540259); type: functional; details: Homo sapiens
[7] = Trypanosoma cruzi growth suppression in host cells – NIH3T3 host cells, beta-gal luminescence, confirmation (AID 2044); type: functional, cell-based;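 further: intracellular parasites grown in NIH/3T3 mouse fibroblasts as host cells; luminescent beta-galactosidase reporter signal from transgenic T. cruzi replicating inside host cells; inhibitors lower the luminescence signal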
[8] = target: T3, Heat shock factor protein 1 (Mus musculus, UniProt P38532); assay: enhancement of HSF1-driven luciferase signal – cell-based, NIH3T3, luminescence, dose retest, confirmation (AID 435004); type: functional;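 further: stress induced by proteasome inhibitor MG132 added 30 min after compound; luciferase reporter driven by HSF1 response element in NIH3T3 cells; actives raise luminescence as potentiators of the MG132 stress response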
T3 sequence (P38532 whole entry): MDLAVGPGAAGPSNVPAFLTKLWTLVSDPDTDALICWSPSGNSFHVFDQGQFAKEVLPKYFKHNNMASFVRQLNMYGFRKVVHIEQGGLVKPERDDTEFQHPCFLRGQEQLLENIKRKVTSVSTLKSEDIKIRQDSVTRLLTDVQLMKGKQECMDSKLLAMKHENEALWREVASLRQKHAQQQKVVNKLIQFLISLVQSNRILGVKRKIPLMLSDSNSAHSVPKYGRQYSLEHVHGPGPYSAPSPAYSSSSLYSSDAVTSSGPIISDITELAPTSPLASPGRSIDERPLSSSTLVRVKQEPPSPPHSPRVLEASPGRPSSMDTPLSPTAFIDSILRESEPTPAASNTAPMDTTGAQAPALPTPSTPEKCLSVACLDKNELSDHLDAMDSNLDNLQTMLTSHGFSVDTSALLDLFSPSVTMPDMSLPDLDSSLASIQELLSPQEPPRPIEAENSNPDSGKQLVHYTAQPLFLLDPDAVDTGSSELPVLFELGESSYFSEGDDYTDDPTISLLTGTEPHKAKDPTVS

[9] = target: T4, Corticotropin-releasing factor receptor 2/Corticotropin-releasing factor-binding protein (Homo sapiens, UniProt P24387+Q13324); assay: activators of CRF receptor 2 with binding protein – uHTS hits, confirmation (AID 602473); type: functional; details: read-out: EC50_Mean
T4 sequence (Q13324 whole entry): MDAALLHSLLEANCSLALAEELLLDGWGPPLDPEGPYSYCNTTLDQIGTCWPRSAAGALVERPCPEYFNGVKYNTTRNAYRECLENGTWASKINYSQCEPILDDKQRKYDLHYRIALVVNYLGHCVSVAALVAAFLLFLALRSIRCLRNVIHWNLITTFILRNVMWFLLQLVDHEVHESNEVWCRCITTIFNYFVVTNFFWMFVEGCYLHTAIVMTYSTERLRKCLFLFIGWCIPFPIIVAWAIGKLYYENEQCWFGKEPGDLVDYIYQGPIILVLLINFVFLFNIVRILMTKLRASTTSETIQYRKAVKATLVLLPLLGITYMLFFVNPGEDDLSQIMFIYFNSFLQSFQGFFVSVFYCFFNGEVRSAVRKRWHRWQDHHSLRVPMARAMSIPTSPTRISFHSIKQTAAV
T4 sequence (P24387 whole entry): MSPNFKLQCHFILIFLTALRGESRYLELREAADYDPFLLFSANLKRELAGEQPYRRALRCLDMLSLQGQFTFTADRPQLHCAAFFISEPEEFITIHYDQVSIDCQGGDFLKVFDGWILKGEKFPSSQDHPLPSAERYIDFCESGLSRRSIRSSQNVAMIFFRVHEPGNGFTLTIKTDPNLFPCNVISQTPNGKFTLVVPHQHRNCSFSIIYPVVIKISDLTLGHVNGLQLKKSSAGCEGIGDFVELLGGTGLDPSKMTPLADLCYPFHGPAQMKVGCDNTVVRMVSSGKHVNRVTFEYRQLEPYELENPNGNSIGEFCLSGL

[10] = target: T5, Polyadenylate-binding protein 1 (Homo sapiens, UniProt P11940); assay: MLLE domain peptide-binding blockers, IC50 – biochemical, fluorescence polarization, FITC-PAM2 peptide, dose response (AID 602259); type: functional; details: read-out: IC50_Mean
[11] = target: T5, Polyadenylate-binding protein 1; assay: MLLE binding blockers, Cy5 peptide tracer – biochemical, fluorescence polarization, Cy5-PAM2 peptide, secondary, miRNA deadenylation inhibitor project, dose response (AID 602260); type: functional; details: read-out: IC50_Mean
[12] = A549 cell cytotoxicity, dose response, cytotoxicity control, plate reader, cherry-pick, antagonist series (AID 743412); type: functional, cell-based
[13] = toxicity toward HepG2 liver cells – cell-based, plate reader, cherry-pick, antagonist series, cytotoxicity control, dose response (AID 743416); type: functional
[14] = blockade of melanocortin 4 receptor signaling – cell-based, plate reader, cherry pick, counter-screen for LGR2 antagonist project, dose response (AID 743444); type: functional;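 further: transfected HEK 293 cells stimulated with alpha-MSH peptide; potency of inhibitors of the alpha-MSH evoked signal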
[15] = blockers of bursicon-stimulated LGR2 cAMP reporter – cell-based, HEK293, CRE-luciferase reporter, cherry pick, set 2, dose response (AID 743343); type: functional;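 further: transfected cells were stimulated with diluted bursicon conditioned medium after compound addition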
Streptococcus = assay: GAS UMAA2166 growth inhibition – luminescence, BacTiterGlo, counter-screen for streptokinase expression inhibitor project, dose response (AID 1915); type: functional, organism-based;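 further: potency for reduction of bacterial viability or growth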
Streptokinase A = target: T6, Streptokinase A (Streptococcus pyogenes serotype M1, UniProt P10520); assay: viability-normalized secreted streptokinase activity reduction – plasminogen activation absorbance, OD405, dose response (AID 1914); type: functional, Streptococcus pyogenes M1 GAS;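 further: secreted streptokinase activity via plasminogen activation per viability signal from cell pellet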
T6 sequence (P10520 whole entry): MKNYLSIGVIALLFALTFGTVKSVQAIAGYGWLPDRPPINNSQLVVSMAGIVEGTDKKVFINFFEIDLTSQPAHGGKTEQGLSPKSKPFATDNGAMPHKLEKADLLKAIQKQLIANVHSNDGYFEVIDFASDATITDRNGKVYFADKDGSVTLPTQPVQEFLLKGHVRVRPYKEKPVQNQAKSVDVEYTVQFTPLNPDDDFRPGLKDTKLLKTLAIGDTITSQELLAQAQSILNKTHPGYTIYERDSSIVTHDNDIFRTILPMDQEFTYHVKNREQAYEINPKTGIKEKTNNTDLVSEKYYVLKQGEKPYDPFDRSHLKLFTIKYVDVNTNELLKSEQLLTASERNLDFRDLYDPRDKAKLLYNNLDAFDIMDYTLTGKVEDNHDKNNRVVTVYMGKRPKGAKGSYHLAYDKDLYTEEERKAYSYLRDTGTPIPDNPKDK

[16] = test system: Streptococcus sp. 'group A'; assay: Streptococcus pyogenes SK(-)GAS viability under kanamycin – luminescence, BacTiterGlo, confirmation, counter-screen for streptokinase expression inhibitor project, dose response (AID 1900); type: functional, organism-based
[17] = target: T7, Histone-lysine N-methyltransferase NSD2 (Homo sapiens, UniProt O96028); type: biochemical
T7 sequence (O96028 whole entry): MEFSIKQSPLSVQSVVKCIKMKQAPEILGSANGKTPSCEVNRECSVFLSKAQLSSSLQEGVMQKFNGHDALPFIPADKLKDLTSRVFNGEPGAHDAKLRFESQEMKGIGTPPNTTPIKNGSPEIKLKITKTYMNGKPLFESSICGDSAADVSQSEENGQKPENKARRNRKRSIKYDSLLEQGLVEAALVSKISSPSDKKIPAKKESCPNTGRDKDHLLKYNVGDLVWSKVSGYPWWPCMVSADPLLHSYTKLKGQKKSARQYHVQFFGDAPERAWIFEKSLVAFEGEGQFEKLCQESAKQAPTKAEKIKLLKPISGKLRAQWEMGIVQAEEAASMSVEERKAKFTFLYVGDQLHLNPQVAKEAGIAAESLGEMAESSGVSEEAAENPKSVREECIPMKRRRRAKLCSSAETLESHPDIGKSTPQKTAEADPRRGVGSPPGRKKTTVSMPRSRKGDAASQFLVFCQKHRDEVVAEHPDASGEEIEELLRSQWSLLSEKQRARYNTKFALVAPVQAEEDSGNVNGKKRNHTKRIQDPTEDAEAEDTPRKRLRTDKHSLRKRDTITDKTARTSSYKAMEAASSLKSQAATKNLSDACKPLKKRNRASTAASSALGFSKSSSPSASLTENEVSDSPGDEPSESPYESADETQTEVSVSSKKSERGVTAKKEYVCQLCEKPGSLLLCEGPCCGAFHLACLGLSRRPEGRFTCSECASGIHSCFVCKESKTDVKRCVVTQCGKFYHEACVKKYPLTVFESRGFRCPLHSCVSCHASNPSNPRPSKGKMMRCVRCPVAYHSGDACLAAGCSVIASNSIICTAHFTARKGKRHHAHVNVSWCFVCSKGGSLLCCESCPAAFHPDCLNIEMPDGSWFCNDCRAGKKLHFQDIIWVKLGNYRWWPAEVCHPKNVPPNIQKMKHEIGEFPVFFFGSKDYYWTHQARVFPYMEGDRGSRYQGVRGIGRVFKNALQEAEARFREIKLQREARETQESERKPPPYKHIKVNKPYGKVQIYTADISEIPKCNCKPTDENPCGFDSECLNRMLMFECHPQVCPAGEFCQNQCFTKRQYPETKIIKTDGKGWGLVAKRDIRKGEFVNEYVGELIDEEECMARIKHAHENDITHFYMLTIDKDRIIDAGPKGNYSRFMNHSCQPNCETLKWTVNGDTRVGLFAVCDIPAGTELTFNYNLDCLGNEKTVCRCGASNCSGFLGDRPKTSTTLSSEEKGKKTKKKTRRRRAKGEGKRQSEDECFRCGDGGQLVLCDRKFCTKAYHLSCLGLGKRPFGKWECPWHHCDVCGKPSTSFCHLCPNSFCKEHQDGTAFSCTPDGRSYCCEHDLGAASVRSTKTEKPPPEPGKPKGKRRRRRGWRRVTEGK

Chain of Voltage-gated inwardly rectifying potassium channel KCNH2 (Q12809 whole entry): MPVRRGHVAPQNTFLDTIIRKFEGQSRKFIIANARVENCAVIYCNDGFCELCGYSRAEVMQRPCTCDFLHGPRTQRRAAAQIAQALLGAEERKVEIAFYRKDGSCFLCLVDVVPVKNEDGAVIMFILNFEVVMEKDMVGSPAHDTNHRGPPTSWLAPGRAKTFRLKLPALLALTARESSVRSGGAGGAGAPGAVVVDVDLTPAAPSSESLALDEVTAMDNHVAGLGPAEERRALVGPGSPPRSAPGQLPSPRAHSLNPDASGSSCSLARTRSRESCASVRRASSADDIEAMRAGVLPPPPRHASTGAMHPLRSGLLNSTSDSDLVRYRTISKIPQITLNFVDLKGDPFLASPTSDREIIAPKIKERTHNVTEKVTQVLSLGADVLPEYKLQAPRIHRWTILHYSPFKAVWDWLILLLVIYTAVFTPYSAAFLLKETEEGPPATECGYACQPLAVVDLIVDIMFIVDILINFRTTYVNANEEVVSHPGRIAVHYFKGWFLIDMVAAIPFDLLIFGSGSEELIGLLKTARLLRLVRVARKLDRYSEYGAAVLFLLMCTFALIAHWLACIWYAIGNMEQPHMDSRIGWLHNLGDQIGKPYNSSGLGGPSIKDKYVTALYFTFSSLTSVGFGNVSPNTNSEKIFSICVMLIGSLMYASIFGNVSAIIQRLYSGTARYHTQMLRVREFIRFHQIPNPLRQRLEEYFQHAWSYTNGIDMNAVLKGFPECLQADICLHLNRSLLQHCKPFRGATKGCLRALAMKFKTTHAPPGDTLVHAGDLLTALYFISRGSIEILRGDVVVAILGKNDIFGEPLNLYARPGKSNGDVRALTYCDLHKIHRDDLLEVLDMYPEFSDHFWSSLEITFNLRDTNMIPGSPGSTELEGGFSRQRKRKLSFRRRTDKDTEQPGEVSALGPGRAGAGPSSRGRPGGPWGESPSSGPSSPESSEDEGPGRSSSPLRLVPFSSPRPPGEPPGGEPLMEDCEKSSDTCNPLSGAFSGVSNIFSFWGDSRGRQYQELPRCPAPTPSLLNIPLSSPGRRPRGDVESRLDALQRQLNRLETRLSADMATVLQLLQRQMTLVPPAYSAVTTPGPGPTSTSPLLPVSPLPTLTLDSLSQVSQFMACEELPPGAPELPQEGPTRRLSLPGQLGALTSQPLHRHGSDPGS
T5 sequence (P11940 whole entry, the tested form may be a part): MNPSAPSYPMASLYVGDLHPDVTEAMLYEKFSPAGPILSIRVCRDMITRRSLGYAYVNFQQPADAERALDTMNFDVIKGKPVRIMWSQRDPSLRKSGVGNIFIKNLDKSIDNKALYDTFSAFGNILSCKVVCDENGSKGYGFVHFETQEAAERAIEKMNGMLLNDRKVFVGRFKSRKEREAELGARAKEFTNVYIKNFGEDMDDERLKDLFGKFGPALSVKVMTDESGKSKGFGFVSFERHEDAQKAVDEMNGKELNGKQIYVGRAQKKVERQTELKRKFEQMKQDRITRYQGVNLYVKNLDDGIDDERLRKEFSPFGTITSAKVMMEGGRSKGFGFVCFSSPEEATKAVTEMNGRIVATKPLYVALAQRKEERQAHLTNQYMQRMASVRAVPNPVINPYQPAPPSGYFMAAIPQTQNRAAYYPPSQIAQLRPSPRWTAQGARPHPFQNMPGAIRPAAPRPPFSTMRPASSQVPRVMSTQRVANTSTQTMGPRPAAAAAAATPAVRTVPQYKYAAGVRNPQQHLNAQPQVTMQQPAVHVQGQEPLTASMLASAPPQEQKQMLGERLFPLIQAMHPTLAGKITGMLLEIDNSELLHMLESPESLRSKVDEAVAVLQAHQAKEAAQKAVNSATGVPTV
T2 sequence (P49327 whole entry): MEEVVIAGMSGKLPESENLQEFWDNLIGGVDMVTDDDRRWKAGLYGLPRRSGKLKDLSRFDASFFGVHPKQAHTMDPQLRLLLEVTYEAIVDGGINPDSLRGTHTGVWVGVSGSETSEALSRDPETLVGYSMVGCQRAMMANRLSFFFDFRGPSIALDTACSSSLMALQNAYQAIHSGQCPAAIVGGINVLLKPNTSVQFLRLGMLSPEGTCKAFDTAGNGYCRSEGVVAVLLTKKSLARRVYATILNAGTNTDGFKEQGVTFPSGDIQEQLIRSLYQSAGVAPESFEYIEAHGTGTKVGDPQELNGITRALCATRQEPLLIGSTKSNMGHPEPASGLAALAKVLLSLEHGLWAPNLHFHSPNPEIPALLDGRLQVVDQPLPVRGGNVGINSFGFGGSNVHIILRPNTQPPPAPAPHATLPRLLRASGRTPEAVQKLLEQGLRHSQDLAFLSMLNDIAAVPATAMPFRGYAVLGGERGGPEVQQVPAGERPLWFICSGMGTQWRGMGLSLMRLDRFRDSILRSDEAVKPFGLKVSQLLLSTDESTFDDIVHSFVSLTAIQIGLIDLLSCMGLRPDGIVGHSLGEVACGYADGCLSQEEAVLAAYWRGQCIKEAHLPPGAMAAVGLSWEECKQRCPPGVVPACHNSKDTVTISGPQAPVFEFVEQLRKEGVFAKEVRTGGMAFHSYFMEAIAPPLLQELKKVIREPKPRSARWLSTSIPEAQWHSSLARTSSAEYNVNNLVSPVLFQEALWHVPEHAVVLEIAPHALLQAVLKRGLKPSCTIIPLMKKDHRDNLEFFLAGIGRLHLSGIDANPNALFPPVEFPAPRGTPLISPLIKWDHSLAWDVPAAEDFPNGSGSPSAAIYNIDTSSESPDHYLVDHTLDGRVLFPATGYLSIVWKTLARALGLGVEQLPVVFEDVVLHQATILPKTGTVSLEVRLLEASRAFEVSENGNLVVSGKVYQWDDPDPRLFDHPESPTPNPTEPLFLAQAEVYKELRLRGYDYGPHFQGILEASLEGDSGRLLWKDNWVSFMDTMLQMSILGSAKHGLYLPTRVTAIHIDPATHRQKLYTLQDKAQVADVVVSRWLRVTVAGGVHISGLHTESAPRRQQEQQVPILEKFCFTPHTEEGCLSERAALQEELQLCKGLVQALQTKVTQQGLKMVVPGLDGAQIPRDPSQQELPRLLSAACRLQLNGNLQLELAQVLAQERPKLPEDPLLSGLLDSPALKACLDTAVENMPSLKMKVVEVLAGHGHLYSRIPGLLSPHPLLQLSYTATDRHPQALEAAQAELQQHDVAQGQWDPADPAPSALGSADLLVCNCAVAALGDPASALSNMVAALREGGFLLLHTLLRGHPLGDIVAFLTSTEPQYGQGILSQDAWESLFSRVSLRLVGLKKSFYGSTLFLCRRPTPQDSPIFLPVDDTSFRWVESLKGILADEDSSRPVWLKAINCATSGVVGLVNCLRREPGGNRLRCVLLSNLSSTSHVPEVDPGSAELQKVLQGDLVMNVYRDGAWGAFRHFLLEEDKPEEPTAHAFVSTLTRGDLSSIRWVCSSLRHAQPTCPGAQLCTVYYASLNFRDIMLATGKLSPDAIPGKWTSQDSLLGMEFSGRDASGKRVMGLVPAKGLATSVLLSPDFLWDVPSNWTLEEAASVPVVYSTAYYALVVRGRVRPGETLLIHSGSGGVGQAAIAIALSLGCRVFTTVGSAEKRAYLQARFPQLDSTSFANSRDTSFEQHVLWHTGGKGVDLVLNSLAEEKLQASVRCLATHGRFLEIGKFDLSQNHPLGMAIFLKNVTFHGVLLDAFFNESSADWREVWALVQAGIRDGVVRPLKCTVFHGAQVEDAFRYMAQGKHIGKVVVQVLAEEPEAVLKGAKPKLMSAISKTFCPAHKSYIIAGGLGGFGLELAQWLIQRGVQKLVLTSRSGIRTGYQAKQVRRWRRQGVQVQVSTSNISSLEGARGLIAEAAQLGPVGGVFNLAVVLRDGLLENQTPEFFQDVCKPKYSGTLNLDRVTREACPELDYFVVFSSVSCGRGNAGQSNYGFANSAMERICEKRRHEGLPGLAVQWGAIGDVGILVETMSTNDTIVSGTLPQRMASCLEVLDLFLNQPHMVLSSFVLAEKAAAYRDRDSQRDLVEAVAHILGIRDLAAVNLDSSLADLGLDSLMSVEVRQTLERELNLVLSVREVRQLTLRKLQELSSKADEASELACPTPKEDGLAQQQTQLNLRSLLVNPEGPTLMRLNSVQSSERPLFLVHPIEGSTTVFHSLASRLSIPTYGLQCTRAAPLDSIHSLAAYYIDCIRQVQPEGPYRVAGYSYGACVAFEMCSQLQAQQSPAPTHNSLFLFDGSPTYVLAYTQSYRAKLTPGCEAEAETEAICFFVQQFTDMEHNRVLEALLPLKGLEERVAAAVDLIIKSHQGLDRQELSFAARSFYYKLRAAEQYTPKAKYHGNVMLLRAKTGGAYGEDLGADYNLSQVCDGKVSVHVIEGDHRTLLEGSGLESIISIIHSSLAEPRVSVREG

C[C@H](N)CN1CCc2ccc(Br)cc21
AC50 [1]: 20 µM (inconclusive)

CCOC(=O)C1OC1c1ccccc1 (stereo unspecified)
AC50 [1]: 35.5 µM (inconclusive)

COCCNC(=O)Cn1nc(C(F)(F)F)cc1C
IC50 (Prothrombin): > 50 µM (not active)

CCOC(=O)Cc1ccc(NS(=O)(=O)c2ccc(SC)cc2)cc1
IC50 (Estrogen receptor): > 50 µM (not active)

Cc1ccc2nc(O)c(-c3nc4ccccn4c3NCc3ccco3)cc2c1
EC50 [2]: 28.4 µM (active)
IC50 (Estrogen receptor): 25.7 µM (active)
EC50 [3]: 18.7 µM (active)

CCOc1ccc(C2CC(=O)N(Nc3ccc([N+](=O)[O-])cc3[N+](=O)[O-])C2=O)cc1 (stereo unspecified)
IC50 (Prothrombin): > 50 µM (not active)
IC50 (Fatty acid synthase [4]): 1.44 µM (active)
IC50 (Fatty acid synthase [5]): 1.84 µM (active)

Cc1ccc(Nc2cc(C)c3c(O)cccc3n2)cc1C
EC50 [6]: > 30 µM (not active)
AC50 (HeLa): 34.5 µM (active)
EC50 [7]: 2.81 µM (active)

C1=C(c2cc3ccccc3cn2)CCCC1
AC50 (HeLa): 51.3 µM (active)

Cc1ccc(C(=O)n2cnnc2N)cc1
IC50 (Prothrombin): 4.05 µM (active)
EC50 [8]: > 260 µM (inactive)

CC(=O)c1ccc(NC(=O)c2noc3c2CCCCC3)cc1
AC50 (HeLa): > 350 µM (inactive)

CC(=O)Nc1c(-c2ccc3ccccc3c2)nc2ccccn12
AC50 (HeLa): 213 µM (active)

C#C[C@]1(O)CC[C@H]2[C@@H]3CCC4=Cc5oncc5CC4(C)[C@H]3CCC21C (stereo partly specified)
AC50 [1]: 1.58 µM (inconclusive)

Cn1c(CN2CCCCC2)nc2cc(NS(=O)(=O)c3ccc(Cl)cc3)ccc21
EC50 [9]: > 53 µM (inactive)
IC50 (Prothrombin): 1.06 µM (active)

Cc1cc(CN(C)C(=O)c2ccc3nc(Cc4ccccc4F)oc3c2)on1
AC50 (HeLa): 68.2 µM (active)

Cn1c(=O)c2cc(NC(=O)c3ccccc3Cl)c(=O)oc2n(C)c1=O
IC50 (Prothrombin): 0.321 µM (active)

O=S(=O)(/N=C(/Sc1ccccc1)c1ccccc1)c1ccccc1
IC50 [10]: > 66 µM (inactive)
IC50 [11]: > 66 µM (inactive)
IC50 (Estrogen receptor): 10.2 µM (active)

COc1ccc(S(=O)(=O)N(C)C[C@@H]2OCc3cnnn3CCCC(=O)N([C@@H](C)CO)C[C@H]2C)cc1
AC50 [12]: > 52 µM (inactive)
AC50 [13]: > 52 µM (inactive)
AC50 [14]: 1.75 µM (active)
AC50 [15]: 2.36 µM (active)

CCOC(=O)C1=C(C)N=c2s/c(=C\c3ccc(O)c([N+](=O)[O-])c3)c(=O)n2C1c1ccccc1OC (stereo unspecified)
EC50 (Streptococcus): 31.3 µM (active)
EC50 (Streptokinase A): 20.4 µM (active)
EC50 [16]: 7.08 µM (active)
AC50 [17]: > 20 µM (inactive)

O=C(O)c1ccc(/C=N/NC(=O)c2ccc(F)cc2)cc1
IC50 (Prothrombin): > 50 µM (not active)

C/C(=N\Nc1ccc(Cl)c(C(=O)O)c1)c1cccc([N+](=O)[O-])c1
IC50 (Prothrombin): > 50 µM (not active)
